Experimental data from patent publication US9605050B2, “Glycoprotein synthesis and remodeling by enzymatic transglycosylation” (UNIVERSITY OF MARYLAND, BALTIMORE, priority 2006, dated 2017).

Assays:
[1] = target: T1, Endo-A (Glutamicibacter protophormiae, UniProt Q9ZB22); experiment: Endo-A catalyzed transglycosylation of synthetic oligosaccharide oxazolines (donor substrates) with GlcNAc-peptide/protein acceptors; type: biochemical, Arthrobacter protophormiae; conditions: for donor substrate activity in Endo-A catalyzed transglycosylation: GlcNAc-tripeptide acceptor (27 or 40), phosphate buffer pH 6.5; for relative transglycosylation rates (order): acceptor 27, same conditions; for donor substrate activity in Endo-A transglycosylation to large acceptor: acceptor GlcNAc-C34, donor/acceptor 5:1
T1 sequence (Q9ZB22 entry or part of it): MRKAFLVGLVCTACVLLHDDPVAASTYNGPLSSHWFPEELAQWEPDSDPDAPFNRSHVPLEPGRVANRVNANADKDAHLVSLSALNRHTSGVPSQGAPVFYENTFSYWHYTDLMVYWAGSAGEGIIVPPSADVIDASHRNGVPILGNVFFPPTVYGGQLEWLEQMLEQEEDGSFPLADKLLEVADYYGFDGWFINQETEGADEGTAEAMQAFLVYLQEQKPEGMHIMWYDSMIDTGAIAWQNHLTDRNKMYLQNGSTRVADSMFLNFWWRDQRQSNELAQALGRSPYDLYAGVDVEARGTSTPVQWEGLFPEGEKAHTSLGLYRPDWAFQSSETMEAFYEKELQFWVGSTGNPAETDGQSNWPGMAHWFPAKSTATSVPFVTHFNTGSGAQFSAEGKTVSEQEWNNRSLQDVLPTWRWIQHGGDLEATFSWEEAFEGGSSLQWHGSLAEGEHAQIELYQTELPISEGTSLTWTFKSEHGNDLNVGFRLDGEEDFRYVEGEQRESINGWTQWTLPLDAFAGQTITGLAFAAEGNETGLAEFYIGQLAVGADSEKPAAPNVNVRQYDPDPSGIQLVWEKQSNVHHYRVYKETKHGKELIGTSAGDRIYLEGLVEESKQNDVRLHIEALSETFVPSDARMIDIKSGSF
Description: To test the transglycosylation potential of the synthetic oligosaccharide oxazolines, a small GlcNAc-tripeptide acceptor, Asn(GlcNAc)-Ile-Thr was synthesized, which represents the minimum consensus sequence for the N24 and N38 N-glycosylation sites in erythropoietin, an important therapeutic glycoprotein for the treatment of anemia.[25] […] As expected, the Endo-A catalyzed reaction of oxazolines 1 and 2 with the GlcNAc-peptide 27 (donoracceptor 3:1) proceeded smoothly in a phosphate buffer (pH 6.5) to give the corresponding N-glycopeptides 28 and 29 in 63 and 86% yields, respectively. […] Thus incubation of 3 and acceptor 27 (ratio 3:1) in the presence of Endo-A gave glycopeptide 30 carrying the N-linked tetrasaccharide moiety in 72% isolated yield. […] The Endo-A catalyzed reaction of 4 with acceptor 27 (3:1) afforded the modified glycopeptide 31 in 55% isolated yield.
(§1) In all cases, the newly formed glycosidic bond in the resulting glycopeptides 28, 29, 30, and 31 was determined by 2D NMR analysis (data not shown) to be a β-1,4-glycosidic linkage, confirming the previous conclusion that the Endo-A catalyzed transglycosylation using oligosaccharide oxazoline as the donor substrates proceeded in a regio- and stereospecific manner.[11]
Next, the structurally related disaccharide oxazolines 5-7 were tested. […] Despite this, the enzyme could tolerate selective modification on the mannose moiety, for example, attachment of additional sugar moieties at the 3′,6′-positions and even an aromatic group at the 6′-position.
(§2) This led to the synthesis of the large glycopeptide 32 that contains the core N-linked tetrasaccharide (75% yield) and glycopeptide 33 which carries a modified trisaccharide (68%) when an excess oxazoline donor (donor/acceptor 5:1) was used. […] Finally, we also tested whether Endo-A could hydrolyze the resulting “ground-state” glycopeptides 28-33 carrying the N-linked core tri-, tetra-, and pentasaccharide, respectively.
A mixture of the respective oligosaccharide oxazoline (10-30 μmol) and the GlcNAc-tripeptide 27 (3 molar equivalents of the donor) or the GlcNAc-C34[7] (5 molar equivalents of the donor) in a phosphate buffer (50 mM, pH 6.5, 0.5-1 mL) was incubated at 25° C. with the enzyme Endo-A (100 mU). The oxazoline derivative was added in portions during the reaction. The reaction was monitored by analytical HPLC by taking aliquots at intervals. It was observed that the transglycosylation reaction with the disaccharide oxazoline derivatives 1 and 4 proceeded slowly and took more than 48 h for reaching the plateau, while the transglycosylation with the tetrasaccharide oxazoline 2 proceeded quickly and would be complete within 2 h. The reaction was stopped by heating in a boiling water bath for 3 min when the peak of the transglycosylation product reached the maximum. The product was purified by preparative HPLC on a Waters preparative column (Symmetry 300, 19×300 mm) to afford the respective glycopeptide, which was characterized by NMR and ESI-MS).
To examine whether the endoglycosidase Endo-A is able to recognize the synthetic nonnatural sugar oxazoline for trans-glycosylation, a model reaction was carried out with a small GlcNAc-peptide, Ac-Asn(GlcNAc)-Ile-Thr (40),[9] as the acceptor, as shown in FIG. 11. The enzymatic reaction was monitored by reverse-phase HPLC. It was observed that the reaction between 39 and 40 (molar ratio 2:1) occurred quickly in the presence of Endo-A, while no ligation would occur in the absence of the enzyme. The glycosylation of the acceptor 40 with oxazoline 39 under the catalysis of Endo-A was essentially complete within 30 min to form the glycopeptide 41, which was isolated in 98% yield. The identity of the glycopeptide was characterized by ESI-MS and NMR.
A mixture of the hexasaccharide oxazoline 39 (0.69 mg, 0.68 μmol) and the GlcNAc-tripeptide 40 (0.2 mg, 0.34 μmol) in a phosphate buffer (50 mM, pH 6.5, 100 μl) was incubated at 23° C. with the enzyme Endo-A (200 mU). […]

[2] = system: Bacillus chitinase; conditions: cited from earlier work
[3] = target: T1, Endo-A; experiment: Endo-A catalyzed transglycosylation of synthetic oligosaccharide oxazolines (donor substrates) with GlcNAc-peptide/protein acceptors; type: biochemical, Arthrobacter protophormiae; conditions: acceptor GlcNAc-RB (43), donor/acceptor 2:1, pH 6.5, 23° C., Endo-A 200 mU
[4] = target: T1, Endo-A; experiment: Endo-A catalyzed hydrolysis of oxazolines and of the resulting glycopeptides/glycoprotein; type: biochemical, Arthrobacter protophormiae; conditions: glycopeptides: in the presence of large amount of Endo-A
Protocol: as §1, §2
This is understandable because glycoprotein 44 carries a nonnatural N-glycan and Endo-A is known to hydrolyze only high-mannose type natural N-glycans. […] All these factors contribute to the formation of the trans-glycosylation product. Similarly, Endo-A catalyzed reaction of GlcNAc-RB with the tetrasaccharide oxazoline 2 [7] gave the glycoprotein 45 carrying the core N-linked pentasaccharide Man3GlcNAc2 in 82% yield (Scheme 3). Again, the observed MS (14574.5 Da, from the deconvolution of the ESI-MS data) of the isolated product matches well with the calculated MS (14575.6 Da) of glycoprotein 45. […]

In the case of `CC1=N[C@H]2[C@@H](O1)O[C@H](CO)[C@@H](O[C@@H]1O[C@H](CO)[C@@H](O)[C@H](O)[C@@H]1O)[C@@H]2O` [oxazoline 1], the “donor substrate activity in Endo-A catalyzed transglycosylation” value [1] is reported as “good donor substrates” and the “relative transglycosylation rates (order)” value [1] is reported as “tetrasaccharide oxazoline 2>trisaccharide oxazoline 3>disaccharide oxazoline 1>Bn-substituted disaccharide oxazoline 4”.

For `CC1=N[C@H]2[C@@H](O1)O[C@H](CO)[C@@H](O[C@@H]1O[C@H](CO[C@H]3O[C@H](CO)[C@@H](O)[C@H](O)[C@@H]3O)[C@@H](O)[C@H](O)[C@@H]1O)[C@@H]2O` [oxazoline 3], the “donor substrate activity in Endo-A catalyzed transglycosylation” value [1] was “efficient donor substrate”, the “relative transglycosylation rates (order)” value [1] was “tetrasaccharide oxazoline 2>trisaccharide oxazoline 3>disaccharide oxazoline 1>Bn-substituted disaccharide oxazoline 4” and the “donor substrate activity in Endo-A transglycosylation to large acceptor” value [1] was “proceeded successfully”.

For `CC1=N[C@H]2[C@@H](O1)O[C@H](CO)[C@@H](O[C@@H]1O[C@H](COCc3ccccc3)[C@@H](O)[C@H](O)[C@@H]1O)[C@@H]2O` [oxazoline 4], the “donor substrate activity in Endo-A catalyzed transglycosylation” value [1] was “could still be recognized by Endo-A as a donor substrate”, the “relative transglycosylation rates (order)” value [1] was “tetrasaccharide oxazoline 2>trisaccharide oxazoline 3>disaccharide oxazoline 1>Bn-substituted disaccharide oxazoline 4” and the “donor substrate activity in Endo-A transglycosylation to large acceptor” value [1] was “proceeded successfully”.

With `CC1=NC2C(O1)OC(CO)C(OC1OC(CO)C(O)C(O)C1O)C2O` (stereo not drawn) [oxazoline 5] the “donor substrate activity in Endo-A catalyzed transglycosylation” value ([1]; listed as 5) was “inactive”.

In the case of `CC(=O)N[C@H]1[C@H](O[C@H]2[C@H](O)[C@H]3N=C(C)O[C@H]3O[C@@H]2CO)O[C@H](CO)[C@@H](O)[C@@H]1O` [oxazoline 6, chitobiose oxazoline, reference compound], the “donor substrate activity in Endo-A catalyzed transglycosylation” value [1] is listed as “could not be recognized by Endo-A” and the “substrate of Bacillus chitinase” value [2] is listed as “substrates”.

For `CC1=NC2C(O1)OC(CO)C(OC1OC(CO)C(O)C(O)C1O)C2O` (stereo not drawn) [oxazoline 7, LacNAc-oxazoline, reference compound], the “donor substrate activity in Endo-A catalyzed transglycosylation” value ([1]; listed as 7) is listed as “could not be recognized by Endo-A” and the “substrate of Bacillus chitinase” value [2] is listed as “substrates”.

For “O-β-D-Galactopyranosyl-(1→4)-α-D-mannopyranosyl-(1→3)-[β-D-galactopyranosyl-(1→4)-α-D-mannopyranosyl-(1→6)]-β-D-mannopyranosyl-(1β4)-(1,2-dideoxy-α-D-glucopyrano)-[2,1-d]-2-oxazoline [oxazoline 39]”, the “time to complete conversion of GlcNAc-RB” value [3] was at most 2 h, the “donor substrate activity in Endo-A catalyzed transglycosylation” value [1] was “excellent substrate” and the “time to essentially complete glycosylation of acceptor 40” value ([1]; acceptor Ac-Asn(GlcNAc)-Ile-Thr (40), donor/acceptor 2:1, 23° C., Endo-A 200 mU) was at most 30 min. The “transglycosylation rate compared with enzymatic hydrolysis of the oxazoline” value ([1]; in the presence of a GlcNAc-peptide or protein acceptor) was “much faster”.

B1: glycoprotein 44: homogeneous ribonuclease B glycoform carrying nonnatural N-glycan Gal2Man3GlcNAc2 at Asn-34 (protein, UniProt P61823 27-150, looked up)
Ribonuclease pancreatic: KETAAAKFERQHMDSSTSAASSSNYCNQMMKSRNLTKDRCKPVNTFVHESLADVQAVCSQKNVACKNGQTNCYQSYSTMSITDCRETGSSKYPNCAYKTTQANKHIIVACEGNPYVPVHFDASV
modifications: Gal2Man3GlcNAc2 N-glycan at Asn-34
In the case of B1, the “hydrolysis of the ground-state glycopeptide/glycoprotein by Endo-A” value [4] is reported as “resistant to Endo-A catalyzed hydrolysis”.
